Assay results: US7880007B2, “Bicyclic substituted phenyl piperidine modulators of muscarinic receptors” (Vertex Pharmaceuticals Incorporated, priority 2004, dated 2011)

How the values were obtained:
Assay type in all cases: cell-based
[1] = molecular target: T1, M2 muscarinic receptor (Homo sapiens, UniProt P08172); experiment: Functional mobilization of intracellular calcium (FLIPR), M2-CHO cells; settings: for M2 Activity: M2-CHO cells, calcium mobilization (FLIPR)
T1 construct: expressed in transfected cells; host or cells: CHO (M2-CHO)
T1 sequence (P08172 1-466): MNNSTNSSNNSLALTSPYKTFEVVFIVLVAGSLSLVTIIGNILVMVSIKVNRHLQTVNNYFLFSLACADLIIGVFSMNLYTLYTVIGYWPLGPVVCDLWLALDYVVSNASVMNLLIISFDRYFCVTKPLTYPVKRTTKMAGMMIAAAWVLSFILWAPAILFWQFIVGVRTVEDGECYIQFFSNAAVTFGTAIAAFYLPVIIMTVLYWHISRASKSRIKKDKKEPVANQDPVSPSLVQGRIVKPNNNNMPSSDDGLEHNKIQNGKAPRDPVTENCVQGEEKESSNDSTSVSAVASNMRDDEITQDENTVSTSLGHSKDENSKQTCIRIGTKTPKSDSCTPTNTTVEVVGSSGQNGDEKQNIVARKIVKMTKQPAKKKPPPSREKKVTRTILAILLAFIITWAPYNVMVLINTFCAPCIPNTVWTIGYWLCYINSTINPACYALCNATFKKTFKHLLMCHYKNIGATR
How it was run: (§1)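 FLIPR fluorescence (ex 488, em 540 nm) recorded 60 sec after compound addition to dye-loaded CHO cells. Agonist mode: compound alone. Antagonist mode: 15 min compound pre-incubation, then carbachol at EC80, or co-application. Efficacy expressed as % of maximal carbachol response.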

[2] = molecular target: T2, M3 muscarinic receptor (Homo sapiens, UniProt P20309); experiment: Functional mobilization of intracellular calcium (FLIPR), M3-CHO cells; settings: for M3 Activity: M3-CHO cells, calcium mobilization (FLIPR)
T2 construct: expressed in transfected cells; host or cells: CHO (M3-CHO)
How it was run: as §1

[3] = molecular target: T3, M4 muscarinic receptor (Homo sapiens, UniProt P08173); experiment: Functional mobilization of intracellular calcium (FLIPR), M4-CHO cells; settings: for M4 Activity: M4-CHO cells, calcium mobilization (FLIPR)
T3 construct: expressed in transfected cells; host or cells: CHO (M4-CHO)
T3 sequence (P08173 1-479): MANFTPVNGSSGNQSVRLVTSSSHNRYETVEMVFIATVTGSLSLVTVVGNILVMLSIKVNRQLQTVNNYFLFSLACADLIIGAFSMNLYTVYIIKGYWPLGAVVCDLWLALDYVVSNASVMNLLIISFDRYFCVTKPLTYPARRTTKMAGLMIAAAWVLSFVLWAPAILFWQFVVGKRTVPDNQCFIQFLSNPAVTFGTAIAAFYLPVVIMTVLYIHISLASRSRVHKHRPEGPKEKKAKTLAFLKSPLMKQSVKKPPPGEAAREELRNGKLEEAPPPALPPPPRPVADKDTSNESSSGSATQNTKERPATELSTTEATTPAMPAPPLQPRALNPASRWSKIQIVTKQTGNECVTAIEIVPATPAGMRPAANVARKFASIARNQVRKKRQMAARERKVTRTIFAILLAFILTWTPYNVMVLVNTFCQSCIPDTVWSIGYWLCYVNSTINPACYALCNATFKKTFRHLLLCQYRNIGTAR
How it was run: as §1

[4] = molecular target: T4, M1 muscarinic receptor (Homo sapiens, UniProt P11229); experiment: Functional mobilization of intracellular calcium (FLIPR), M1-CHO cells; settings: for M1 Activity: M1-CHO cells, calcium mobilization (FLIPR)
T4 construct: expressed in transfected cells; host or cells: CHO (M1-CHO)
T4 sequence (P11229 1-460): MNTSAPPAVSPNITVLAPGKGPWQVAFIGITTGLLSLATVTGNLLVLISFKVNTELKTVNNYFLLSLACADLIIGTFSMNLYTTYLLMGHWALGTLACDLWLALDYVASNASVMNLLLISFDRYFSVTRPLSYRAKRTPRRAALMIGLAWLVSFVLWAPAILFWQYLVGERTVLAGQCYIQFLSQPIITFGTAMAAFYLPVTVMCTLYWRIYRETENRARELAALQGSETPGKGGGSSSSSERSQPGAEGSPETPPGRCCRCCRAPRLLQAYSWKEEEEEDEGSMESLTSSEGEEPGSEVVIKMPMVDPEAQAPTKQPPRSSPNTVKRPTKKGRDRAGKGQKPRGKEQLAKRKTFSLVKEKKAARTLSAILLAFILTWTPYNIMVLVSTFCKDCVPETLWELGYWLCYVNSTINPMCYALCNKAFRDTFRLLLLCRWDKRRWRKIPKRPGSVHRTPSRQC
How it was run: as §1

[5] = 100% efficacy = maximum response obtained with the Carbachol control
[6] = 100% efficacy is the maximum response obtained with the Carbachol control

T2 sequence (P20309 whole entry): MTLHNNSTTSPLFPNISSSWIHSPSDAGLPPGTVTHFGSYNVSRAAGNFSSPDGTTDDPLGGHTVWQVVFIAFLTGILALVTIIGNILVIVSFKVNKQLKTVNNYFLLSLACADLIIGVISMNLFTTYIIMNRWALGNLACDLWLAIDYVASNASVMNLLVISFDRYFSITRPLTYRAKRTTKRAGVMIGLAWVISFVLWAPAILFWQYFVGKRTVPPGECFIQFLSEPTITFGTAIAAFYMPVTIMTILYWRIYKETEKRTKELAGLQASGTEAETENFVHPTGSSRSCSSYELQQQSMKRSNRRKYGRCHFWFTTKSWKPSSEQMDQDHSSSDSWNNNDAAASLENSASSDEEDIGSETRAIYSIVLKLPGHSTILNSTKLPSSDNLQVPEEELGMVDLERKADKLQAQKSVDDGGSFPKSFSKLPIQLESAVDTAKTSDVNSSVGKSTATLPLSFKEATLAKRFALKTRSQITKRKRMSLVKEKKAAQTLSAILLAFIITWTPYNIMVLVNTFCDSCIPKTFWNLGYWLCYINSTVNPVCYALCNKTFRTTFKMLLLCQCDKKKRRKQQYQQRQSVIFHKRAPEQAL

SMILES	Emax [1, 5]	Emax [3, 5]	Emax [4, 5]	Emax [1, 6]	Emax [2, 6]	Emax [3, 6]	Emax [4, 6]	Emax [2, 5]	M2 Activity [1]	M3 Activity [2]	M4 Activity [3]	M1 Activity [4]
COc1ccccc1C1(O)CCN(CC2CC3C=CC2C3)CC1 (stereo not shown) [Compound 29]	< 25%	25 to 100%	25 to 100%	–	–	–	–	–	+ (activity was measured to be greater than 5.0 μM)	+ (activity was measured to be greater than 5.0 μM)	++ (activity was measured to be from 1.0 μM to 5.0 μM)	+ (activity was measured to be greater than 5.0 μM)
Cc1ccc(C)c(C2(O)CCN(C3CC4CCC3C4)CC2)c1 (stereo not shown) [Compound 135]	< 25%	< 25%	25 to 100%	–	–	–	–	–	+ (activity was measured to be greater than 5.0 μM)	+ (activity was measured to be greater than 5.0 μM)	+ (activity was measured to be greater than 5.0 μM)	+ (activity was measured to be greater than 5.0 μM)
COc1ccc(-c2ccc(C(=O)N3CCOCC3)cc2)cc1C1CCN([C@H]2C[C@H]3CC[C@H]2C3)CC1 [Compound 8]	< 25%	< 25%	< 25%	–	–	–	–	< 25%	+ (activity was measured to be greater than 5.0 μM)	+ (activity was measured to be greater than 5.0 μM)	+ (activity was measured to be greater than 5.0 μM)	+ (activity was measured to be greater than 5.0 μM)
COc1ccc(Cl)cc1C1(OC)CCN(CC2CCOCC2)CC1 [Compound 123]	< 25%	< 25%	25 to 100%	–	–	–	–	< 25%	+ (activity was measured to be greater than 5.0 μM)	+ (activity was measured to be greater than 5.0 μM)	+ (activity was measured to be greater than 5.0 μM)	++ (activity was measured to be from 1.0 μM to 5.0 μM)
COc1ccc(F)cc1C1(F)CCN(C2CC3CCC(C3)C2)CC1 (stereo not shown) [Compound 40]	25 to 100%	25 to 100%	25 to 100%	–	–	–	–	< 25%	+ (activity was measured to be greater than 5.0 μM)	+ (activity was measured to be greater than 5.0 μM)	+++ (activity was measured to be less than 1.0 μM)	++ (activity was measured to be from 1.0 μM to 5.0 μM)
COc1ccc(C(=O)c2ccccc2)cc1C1CCN([C@H]2C[C@H]3CC[C@H]2C3)CC1 [Compound 50]	< 25%	25 to 100%	25 to 100%	–	–	–	–	< 25%	+ (activity was measured to be greater than 5.0 μM)	+ (activity was measured to be greater than 5.0 μM)	++ (activity was measured to be from 1.0 μM to 5.0 μM)	+ (activity was measured to be greater than 5.0 μM)

Continued, in another order:

Emax [1, 5]	Emax [3, 5]	Emax [4, 5]	Emax [1, 6]	Emax [2, 6]	Emax [3, 6]	Emax [4, 6]	Emax [2, 5]	SMILES	M2 Activity [1]	M3 Activity [2]	M4 Activity [3]	M1 Activity [4]
–	–	–	< 25%	< 25%	25 to 100%	< 25%	–	COc1ccc(-c2ccc3c(c2)OCO3)cc1C1CCN(C2CCCCC2)CC1 [Compound 382]	+ (activity was measured to be greater than 5.0 μM)	+ (activity was measured to be greater than 5.0 μM)	+ (activity was measured to be greater than 5.0 μM)	+ (activity was measured to be greater than 5.0 μM)
< 25%	< 25%	< 25%	–	–	–	–	< 25%	COc1ccccc1C1CCN(C2CCC(C3CCCCC3)CC2)CC1 (stereo not shown) [Compound 175]	+ (activity was measured to be greater than 5.0 μM)	+ (activity was measured to be greater than 5.0 μM)	+ (activity was measured to be greater than 5.0 μM)	+ (activity was measured to be greater than 5.0 μM)
< 25%	25 to 100%	< 25%	–	–	–	–	< 25%	CNC(=O)c1ccc(-c2ccc(OC)c(C3CCN(C4C[C@H]5CC[C@H]4C5)CC3)c2)cc1Cl (stereo partly shown) [Compound 328]	+ (activity was measured to be greater than 5.0 μM)	+ (activity was measured to be greater than 5.0 μM)	++ (activity was measured to be from 1.0 μM to 5.0 μM)	+ (activity was measured to be greater than 5.0 μM)
25 to 100%	25 to 100%	25 to 100%	–	–	–	–	< 25%	CCCC1CCC(N2CCC(F)(c3cc(Cl)ccc3OC)CC2)CC1 (stereo not shown) [Compound 365]	+ (activity was measured to be greater than 5.0 μM)	+ (activity was measured to be greater than 5.0 μM)	+ (activity was measured to be greater than 5.0 μM)	+ (activity was measured to be greater than 5.0 μM)
< 25%	25 to 100%	< 25%	–	–	–	–	< 25%	COc1ccc(-c2ccccc2)cc1C1CCN([C@H]2C[C@H]3CC[C@H]2C3)CC1 [Compound 168]	+ (activity was measured to be greater than 5.0 μM)	+ (activity was measured to be greater than 5.0 μM)	+ (activity was measured to be greater than 5.0 μM)	+ (activity was measured to be greater than 5.0 μM)
< 25%	< 25%	< 25%	–	–	–	–	< 25%	COc1ccc(C(C)=O)cc1C1CCN([C@H]2C[C@H]3CC[C@H]2C3)CC1 [Compound 321]	+ (activity was measured to be greater than 5.0 μM)	+ (activity was measured to be greater than 5.0 μM)	+ (activity was measured to be greater than 5.0 μM)	+ (activity was measured to be greater than 5.0 μM)
25 to 100%	25 to 100%	25 to 100%	–	–	–	–	< 25%	COc1ccc(Cl)cc1C1(F)CCN(C[C@H]2C[C@H]3C=C[C@H]2C3)CC1 [Compound 213]	++ (activity was measured to be from 1.0 μM to 5.0 μM)	+ (activity was measured to be greater than 5.0 μM)	+++ (activity was measured to be less than 1.0 μM)	+ (activity was measured to be greater than 5.0 μM)
25 to 100%	25 to 100%	25 to 100%	–	–	–	–	< 25%	Cc1ccc(C(F)(F)F)cc1C1CCN(C2C[C@H]3CC[C@H]2C3)CC1 (stereo partly shown) [Compound 261]	+ (activity was measured to be greater than 5.0 μM)	+ (activity was measured to be greater than 5.0 μM)	++ (activity was measured to be from 1.0 μM to 5.0 μM)	+++ (activity was measured to be less than 1.0 μM)
< 25%	< 25%	< 25%	–	–	–	–	< 25%	COc1ccc(-c2cccc(C)c2)cc1C1CCN([C@H]2C[C@H]3CC[C@H]2C3)CC1 [Compound 277]	+ (activity was measured to be greater than 5.0 μM)	+ (activity was measured to be greater than 5.0 μM)	+ (activity was measured to be greater than 5.0 μM)	+ (activity was measured to be greater than 5.0 μM)
